Columns and labels:
Format in all cases: functional
Aphis craccivora [1] = assay: Insecticidal activity against Aphis craccivora (cowpea aphid) infested horsebean plant leaves assessed as insect mortality at 500 mg/L measured 24 hr post compound treatment by leaf-dip method
Mythimna separata [2] = assay: Insecticidal activity against Mythimna separata (Oriental armyworm) second-instar larvae infested on compound pre-treated corn leaves assessed as insect mortality at 500 mg/L measured 48 hr post compound treatment by leaf-dip method
Aphis craccivora [3] = assay: Insecticidal activity against Aphis craccivora (cowpea aphid) infested horsebean plant leaves assessed as insect mortality measured 24 hr post compound treatment by leaf-dip method
Mythimna separata [4] = assay: Insecticidal activity against Mythimna separata(Oriental armyworm) second-instar larvae infested on compound pre-treated corn leaves assessed as insect mortality measured 48 hr post compound treatment by leaf-dip method
Nephotettix cincticeps [5] = assay: Insecticidal activity against Nephotettix cincticeps (green rice leafhopper) grown on booting stage rice plant stems assessed as insect mortality measured 48 hr post compound treatment by leaf-dip method
Laodelphax striatellus [6] = assay: Insecticidal activity against Laodelphax striatella (small brown planthopper) grown on booting stage rice plant stems assessed as insect mortality measured 48 hr post compound treatment by leaf-dip method
Laodelphax striatellus [7] = assay: Potency index, ratio of LC50 for imidacloprid to LC50 for test compound against Laodelphax striatella (small brown planthopper) grown on booting stage rice plant stems assessed as insect mortality measured 48 hr post compound treatment by leaf-dip method
Nephotettix cincticeps [8] = assay: Potency index, ratio of LC50 for imidacloprid to LC50 for test compound against Nephotettix cincticeps (green rice leafhopper) grown on booting stage rice plant stems assessed as insect mortality measured 48 hr post compound treatment by leaf-dip method

| Structure (SMILES) | mortality at 500 µg/mL (Aphis craccivora [1]) | mortality at 500 µg/mL (Mythimna separata [2]) | LC50 (Aphis craccivora [3]) | LC50 (Mythimna separata [4]) | LC50 (Nephotettix cincticeps [5]) | LC50 (Laodelphax striatellus [6]) | RatioLC50 (Laodelphax striatellus [7]) | RatioLC50 (Nephotettix cincticeps [8]) |
| --- | --- | --- | --- | --- | --- | --- | --- | --- |
| Cc1ccc(/C=C(/C2=NCCCN2Cc2ccc(Cl)nc2)[N+](=O)[O-])s1 | 100% | 63.3% | 24.6 µM |  |  |  |  |  |
| O=[N+]([O-])/C(=C\c1ccc[nH]1)C1=NCCN1Cc1ccc(Cl)nc1 | 100% | 100% | 11.2 µM | 39.7 µM |  |  |  |  |
| Cl.O=[N+]([O-])/C(=C\c1cccs1)C1=NCCN1Cc1ccc(Cl)nc1 | 100% | 100% | 4.23 µM | 52.9 µM | 1.22 µM | 14 µM | 3.6 | 17.1 |
| O=[N+]([O-])/C(=C\c1ccco1)C1=NCCN1Cc1ccc(Cl)cc1 | 98% | 67.2% | 234 µM |  |  |  |  |  |
| O=[N+]([O-])/N=C1\NCCN1Cc1ccc(Cl)nc1 [IMIDACLOPRID] | 100% |  | 35 µM |  | 20.9 µM | 49.8 µM |  |  |
| O=[N+]([O-])/C(=C\c1ccc([N+](=O)[O-])o1)C1=NCCN1Cc1ccc(Cl)nc1 | 100% | 100% | 11.1 µM | 69.5 µM | 154 µM |  |  |  |
| CCc1ccc(/C=C(/C2=NCCN2Cc2ccc(Cl)nc2)[N+](=O)[O-])o1 | 100% | 100% | 1.82 µM | 97.9 µM |  |  |  |  |
| Cc1cc(/C=C(/C2=NCCN2Cc2ccc(Cl)nc2)[N+](=O)[O-])oc1C | 100% | 0% | 4.65 µM |  |  |  |  |  |
| O=[N+]([O-])/C(=C\c1cc(Br)cs1)C1=NCCN1Cc1ccc(Cl)nc1 | 0% | 0% |  |  |  |  |  |  |
| Cl.O=[N+]([O-])/C(=C\c1ccc(CO)o1)C1=NCCN1Cc1ccc(Cl)nc1 | 100% | 100% | 10.6 µM | 33.9 µM | 1.11 µM |  |  | 18.8 |
| O=[N+]([O-])/C(=C\c1ccco1)C1=NCCCN1Cc1ccc(Cl)nc1 | 100% | 16.7% | 76.4 µM |  |  |  |  |  |
| O=[N+]([O-])/C(=C\c1ccc(Cl)o1)C1=NCCCN1Cc1ccc(Cl)nc1 | 100% | 96.7% | 60.9 µM |  |  |  |  |  |
| O=[N+]([O-])/C(=C\c1ccco1)C1=NCCN1Cc1cnc(Cl)s1 | 100% | 100% | 3.5 µM | 107 µM |  |  |  |  |
| Cc1ccc(/C=C(/C2=NCCN2Cc2ccc(Cl)nc2)[N+](=O)[O-])s1 | 100% | 100% | 3.11 µM | 29.7 µM |  |  |  |  |
| O=[N+]([O-])/C(=C\c1ccc(Cl)o1)C1=NCCN1Cc1ccc(Cl)nc1 | 100% | 100% | 7.54 µM | 37.6 µM |  |  |  |  |
| Cl.O=[N+]([O-])/C(=C\c1ccco1)C1=NCCN1Cc1ccc(Cl)nc1 | 100% | 100% | 3.72 µM | 24.7 µM | 1.3 µM | 7.23 µM | 6.9 | 16 |
| O=[N+]([O-])/C(=C\c1ccc(Br)o1)C1=NCCN1Cc1ccc(Cl)nc1 | 100% | 100% | 7.3 µM | 39.7 µM | 2.54 µM |  |  |  |
| Cc1ccc(/C=C(/C2=NCCCN2Cc2ccc(Cl)nc2)[N+](=O)[O-])o1 | 100% | 33.3% | 698 µM |  |  |  |  |  |
| O=[N+]([O-])/C(=C\c1ccoc1)C1=NCCN1Cc1ccc(Cl)nc1 | 100% | 100% | 4.46 µM | 55.3 µM |  |  |  |  |
| O=[N+]([O-])/C(=C\c1ccsc1)C1=NCCN1Cc1ccc(Cl)nc1 | 31.9% | 0% |  |  |  |  |  |  |
| Cc1ccc(/C=C(/C2=NCCN2Cc2ccc(Cl)nc2)[N+](=O)[O-])o1 | 100% | 100% | 6.34 µM | 53.1 µM | 4.05 µM |  |  |  |
| O=[N+]([O-])/C(=C\c1ccco1)C1=NCCN1Cc1ccccc1 | 0% | 46.6% |  |  |  |  |  |  |
| O=[N+]([O-])/C(=C\c1cccs1)C1=NCCCN1Cc1ccc(Cl)nc1 | 100% | 73.3% | 20.5 µM |  |  |  |  |  |
